Measurements published in paper PMC5218480 (PLoS ONE, 2017).

Test system: MV-4-11 cells
Assay: Gene expression microarray analysis (Affymetrix PrimeView) and GSEA
Type: cell-based, human
Parameters: RFU PODN (11730768_x_at) / Fold change /veh PODN (11730768_x_at) / RFU LINC00158 (11744669_a_at) / Fold change /veh LINC00158 (11744669_a_at) / RFU DUSP10 (11751237_a_at) / Fold change /veh DUSP10 (11751237_a_at) / RFU ID3 (11757404_x_at) / Fold change /veh ID3 (11757404_x_at) / RFU PLEKHG5 (11737974_s_at) / Fold change /veh PLEKHG5 (11737974_s_at) / RFU LRRC4B (11730491_at) / Fold change /veh LRRC4B (11730491_at) / RFU GIMAP4 (11747438_a_at) / Fold change /veh GIMAP4 (11747438_a_at) / RFU KRT8 (11758183_x_at) / Fold change /veh KRT8 (11758183_x_at) / RFU CNN1 (11734310_a_at) / Fold change /veh CNN1 (11734310_a_at) / RFU VPS37D (11726825_at) / Fold change /veh VPS37D (11726825_at) / RFU C10orf10 (11716522_x_at) / Fold change /veh C10orf10 (11716522_x_at) / RFU KIR2DL2 /// KIR2DL4 /// KIR2DL5A /// KIR2DL5B /// KIR2DS1 /// KIR2DS2 /// KIR2DS3 /// KIR2DS4 /// KIR3DL3 /// KIR3DL3 /// KIR3DS1 (11738374_at) / Fold change /veh KIR2DL2 /// KIR2DL4 /// KIR2DL5A /// KIR2DL5B /// KIR2DS1 /// KIR2DS2 /// KIR2DS3 /// KIR2DS4 /// KIR3DL3 /// KIR3DL3 /// KIR3DS1 (11738374_at) / RFU C1QL1 (11718748_at) / Fold change /veh C1QL1 (11718748_at) / RFU TMPRSS4 (11747572_a_at) / Fold change /veh TMPRSS4 (11747572_a_at) / RFU HAMP (11756126_x_at) / Fold change /veh HAMP (11756126_x_at) / RFU RNFT2 (11725882_a_at) / Fold change /veh RNFT2 (11725882_a_at) / RFU NR4A2 (11747474_a_at) / Fold change /veh NR4A2 (11747474_a_at) / RFU ABCC12 (11746883_a_at) / Fold change /veh ABCC12 (11746883_a_at) / RFU TMEM136 (11760407_x_at) / Fold change /veh TMEM136 (11760407_x_at) / RFU CLDN22 /// WWC2 (11732394_at) / Fold change /veh CLDN22 /// WWC2 (11732394_at) / RFU HLA-DPB1 (11760878_x_at) / Fold change /veh HLA-DPB1 (11760878_x_at) / RFU SPINT1 (11716480_a_at) / Fold change /veh SPINT1 (11716480_a_at) / RFU GAP43 (11754022_s_at) / Fold change /veh GAP43 (11754022_s_at) / RFU A4GNT (11735810_at) / Fold change /veh A4GNT (11735810_at) / RFU PRB3 (11715151_x_at) / Fold change /veh PRB3 (11715151_x_at) / RFU TUBB4B (11761932_at) / Fold change /veh TUBB4B (11761932_at) / RFU CAPN14 (11732068_a_at) / Fold change /veh CAPN14 (11732068_a_at) / RFU TMCC2 (11721928_a_at) / Fold change /veh TMCC2 (11721928_a_at) / RFU IRGQ (11745062_a_at) / Fold change /veh IRGQ (11745062_a_at) / RFU FAM174B (11720279_a_at) / Fold change /veh FAM174B (11720279_a_at) / RFU TMPRSS4 (11748680_a_at) / Fold change /veh TMPRSS4 (11748680_a_at) / RFU FAM212B (11763350_a_at) / Fold change /veh FAM212B (11763350_a_at) / RFU PLEKHG5 (11743358_a_at) / Fold change /veh PLEKHG5 (11743358_a_at) / RFU ZSCAN30 (11745921_a_at) / Fold change /veh ZSCAN30 (11745921_a_at) / RFU CMKLR1 (11741424_a_at) / Fold change /veh CMKLR1 (11741424_a_at) / RFU LOC101060620 /// MAPK8IP1 (11723275_at) / Fold change /veh LOC101060620 /// MAPK8IP1 (11723275_at) / RFU SPTSSB (11747773_x_at) / Fold change /veh SPTSSB (11747773_x_at) / RFU PRSS12 (11739890_at) / Fold change /veh PRSS12 (11739890_at) / RFU BIN1 (11741810_x_at) / Fold change /veh BIN1 (11741810_x_at) / RFU WNT11 (11732464_a_at) / Fold change /veh WNT11 (11732464_a_at) / RFU C10orf10 (11716521_a_at) / Fold change /veh C10orf10 (11716521_a_at) / RFU C5orf56 (11738089_at) / Fold change /veh C5orf56 (11738089_at) / RFU CYB561 (11721691_x_at) / Fold change /veh CYB561 (11721691_x_at) / RFU ANKRD19P (11752326_a_at) / Fold change /veh ANKRD19P (11752326_a_at) / RFU OR2T12 /// OR2T33 /// OR2T8 (11738714_s_at) / Fold change /veh OR2T12 /// OR2T33 /// OR2T8 (11738714_s_at) / RFU VCAN (11748164_a_at) / Fold change /veh VCAN (11748164_a_at) / RFU JSRP1 (11732532_at) / Fold change /veh JSRP1 (11732532_at) / RFU KRTAP10-11 (11738290_x_at) / Fold change /veh KRTAP10-11 (11738290_x_at) / RFU MYO3A (11730013_a_at) / Fold change /veh MYO3A (11730013_a_at) / RFU EBF3 (11725865_a_at) / Fold change /veh EBF3 (11725865_a_at) / RFU CAMK2N1 (11719241_x_at) / Fold change /veh CAMK2N1 (11719241_x_at) / RFU C5orf56 (11738088_a_at) / Fold change /veh C5orf56 (11738088_a_at) / RFU OLFML3 (11715873_a_at) / Fold change /veh OLFML3 (11715873_a_at) / RFU LOC100653217 /// NTM (11731650_a_at) / Fold change /veh LOC100653217 /// NTM (11731650_a_at) / RFU MAPK11 (11762145_a_at) / Fold change /veh MAPK11 (11762145_a_at) / RFU FIZ1 (11724087_x_at) / Fold change /veh FIZ1 (11724087_x_at) / RFU OASL (11726364_x_at) / Fold change /veh OASL (11726364_x_at) / RFU SOX15 (11748057_x_at) / Fold change /veh SOX15 (11748057_x_at) / RFU CD79A (11719716_a_at) / Fold change /veh CD79A (11719716_a_at) / RFU HIST1H1D (11736915_at) / Fold change /veh HIST1H1D (11736915_at) / RFU CASKIN2 (11723855_a_at) / Fold change /veh CASKIN2 (11723855_a_at) / RFU LOC730098 (11760151_x_at) / Fold change /veh LOC730098 (11760151_x_at) / RFU OR4N2 (11742367_at) / Fold change /veh OR4N2 (11742367_at) / RFU PRRT2 (11749266_a_at) / Fold change /veh PRRT2 (11749266_a_at) / RFU SNX32 (11753110_a_at) / Fold change /veh SNX32 (11753110_a_at) / RFU CDHR5 (11726645_a_at) / Fold change /veh CDHR5 (11726645_a_at) / RFU RCAN1 (11760418_a_at) / Fold change /veh RCAN1 (11760418_a_at) / RFU FAM167A (11723789_a_at) / Fold change /veh FAM167A (11723789_a_at) / RFU FAM26E (11764081_at) / Fold change /veh FAM26E (11764081_at) / RFU ISYNA1 (11749810_s_at) / Fold change /veh ISYNA1 (11749810_s_at) / RFU ACY1 (11761880_at) / Fold change /veh ACY1 (11761880_at) / RFU 11764098_at / Fold change /veh 11764098_at / RFU SAMD14 (11745864_x_at) / Fold change /veh SAMD14 (11745864_x_at) / RFU NPB (11741838_a_at) / Fold change /veh NPB (11741838_a_at) / RFU TMPRSS6 (11731388_a_at) / Fold change /veh TMPRSS6 (11731388_a_at) / RFU KRTAP10-2 (11738614_at) / Fold change /veh KRTAP10-2 (11738614_at) / RFU ARHGAP8 /// PRR5-ARHGAP8 (11727945_x_at) / Fold change /veh ARHGAP8 /// PRR5-ARHGAP8 (11727945_x_at) / RFU KRTAP5-7 /// NADSYN1 (11734609_at) / Fold change /veh KRTAP5-7 /// NADSYN1 (11734609_at) / RFU RASL12 (11751679_a_at) / Fold change /veh RASL12 (11751679_a_at) / RFU CDKN2B (11736163_a_at) / Fold change /veh CDKN2B (11736163_a_at) / RFU PRF1 (11729649_at) / Fold change /veh PRF1 (11729649_at) / RFU, ZNF638 /// ZNF638-IT1 / Fold change vs veh, ZNF638 /// ZNF638-IT1 / RFU, PANK3 / Fold change vs veh, PANK3 / RFU, SH3YL1 / Fold change vs veh, SH3YL1 / RFU, ZEB2 / Fold change vs veh, ZEB2 / RFU, NRIP1 / Fold change vs veh, NRIP1 / RFU, PTTG1IP / Fold change vs veh, PTTG1IP / RFU, CAPN2 / Fold change vs veh, CAPN2 / RFU, MED14 / Fold change vs veh, MED14 / RFU, SNORA58 / Fold change vs veh, SNORA58 / RFU, C1orf63 / Fold change vs veh, C1orf63 / RFU, LRRFIP1 / Fold change vs veh, LRRFIP1 / RFU, NDUFAF7 / Fold change vs veh, NDUFAF7 / RFU, SLC12A2 / Fold change vs veh, SLC12A2 / RFU, IBTK / Fold change vs veh, IBTK / RFU, ESF1 / Fold change vs veh, ESF1 / Fold change vs veh, TMEM50B / RFU, TAOK1 / Fold change vs veh, TAOK1 / RFU, ACBD3 / Fold change vs veh, ACBD3 / RFU, TMA16 / Fold change vs veh, TMA16 / RFU, RWDD3 / Fold change vs veh, RWDD3 / RFU, BCAT1 / Fold change vs veh, BCAT1 / RFU, EDEM3 / Fold change vs veh, EDEM3 / RFU, TMEM33 / Fold change vs veh, TMEM33 / RFU, WDR75 / Fold change vs veh, WDR75 / RFU, AHCTF1 / Fold change vs veh, AHCTF1 / RFU, TFRC / Fold change vs veh, TFRC / RFU, ZDHHC17 / Fold change vs veh, ZDHHC17 / RFU, NOM1 / Fold change vs veh, NOM1 / RFU, ARL8B / Fold change vs veh, ARL8B / RFU, ZBTB11 / Fold change vs veh, ZBTB11 / RFU, TAMM41 / Fold change vs veh, TAMM41 / RFU, KIAA1704 /// LOC100996395 / Fold change vs veh, KIAA1704 /// LOC100996395 / RFU, ING1 / Fold change vs veh, ING1 / RFU, TRMT61B / Fold change vs veh, TRMT61B / RFU, FUBP3 / Fold change vs veh, FUBP3 / RFU, TP53 / Fold change vs veh, TP53 / RFU, TNKS2 / Fold change vs veh, TNKS2 / RFU, ZFP14 / Fold change vs veh, ZFP14 / RFU, ACTR2 / Fold change vs veh, ACTR2 / RFU, PPP3R1 / Fold change vs veh, PPP3R1 / RFU, PIK3R1 / Fold change vs veh, PIK3R1 / RFU, HNRNPA1 / Fold change vs veh, HNRNPA1 / RFU, RNF170 / Fold change vs veh, RNF170 / RFU, ZNF28 / Fold change vs veh, ZNF28 / RFU, RNGTT / Fold change vs veh, RNGTT / RFU, OGT / Fold change vs veh, OGT / RFU, BRD1 / Fold change vs veh, BRD1 / RFU, MARS / Fold change vs veh, MARS / RFU, ZNF655 / Fold change vs veh, ZNF655 / RFU, FAHD1 / Fold change vs veh, FAHD1 / RFU, BDP1 / Fold change vs veh, BDP1 / RFU, LRRCC1 / Fold change vs veh, LRRCC1 / RFU, ARID1A / Fold change vs veh, ARID1A / RFU, ZNF146 / Fold change vs veh, ZNF146 / RFU, ZNF330 / Fold change vs veh, ZNF330 / RFU, GPN3 / Fold change vs veh, GPN3 / RFU, C9orf123 / Fold change vs veh, C9orf123 / RFU, N4BP2L2 / Fold change vs veh, N4BP2L2 / RFU, ARFIP1 / Fold change vs veh, ARFIP1 / RFU, FAM179B / Fold change vs veh, FAM179B / RFU, BCL10 / Fold change vs veh, BCL10 / RFU, UHRF1BP1L / Fold change vs veh, UHRF1BP1L / RFU, BET1 / Fold change vs veh, BET1 / RFU, CNOT2 / Fold change vs veh, CNOT2 / RFU, ZNF268 / Fold change vs veh, ZNF268 / Fold change vs veh, ZNF507 / RFU, DGCR2 / Fold change vs veh, DGCR2 / RFU, WDSUB1 / Fold change vs veh, WDSUB1 / Fold change vs veh, HSP90B1 /// MIR3652 / RFU, ADSS / Fold change vs veh, ADSS / RFU, GK / Fold change vs veh, GK / RFU, ZNF148 / Fold change vs veh, ZNF148 / RFU, TAF9 / Fold change vs veh, TAF9 / RFU, SLC1A5 / Fold change vs veh, SLC1A5 / RFU, SLMO2 / Fold change vs veh, SLMO2 / RFU, ABCC4 / Fold change vs veh, ABCC4 / RFU, LOC101060439 /// RAP1B / Fold change vs veh, LOC101060439 /// RAP1B / RFU, RFX7 / Fold change vs veh, RFX7 / RFU, GTPBP10 / Fold change vs veh, GTPBP10 / RFU, CNEP1R1 / Fold change vs veh, CNEP1R1 / RFU, BIVM-ERCC5 /// ERCC5 / Fold change vs veh, BIVM-ERCC5 /// ERCC5 / RFU, ILF3 / Fold change vs veh, ILF3 / RFU 11762660_at / Fold change /veh 11762660_at / RFU VCAN (11757783_s_at) / Fold change /veh VCAN (11757783_s_at) / RFU DDX43 (11728927_at) / Fold change /veh DDX43 (11728927_at) / RFU KRT8 (11758188_x_at) / Fold change /veh KRT8 (11758188_x_at) / RFU NKD1 (11759106_at) / Fold change /veh NKD1 (11759106_at) / RFU SRD5A1 (11742802_a_at) / Fold change /veh SRD5A1 (11742802_a_at) / RFU TPSAB1 /// TPSB2 (11721975_s_at) / Fold change /veh TPSAB1 /// TPSB2 (11721975_s_at) / RFU GSTM3 (11746129_a_at) / Fold change /veh GSTM3 (11746129_a_at) / RFU IL23R (11737362_x_at) / Fold change /veh IL23R (11737362_x_at) / RFU TMEM51 (11727254_a_at) / Fold change /veh TMEM51 (11727254_a_at) / RFU PIWIL2 (11732686_x_at) / Fold change /veh PIWIL2 (11732686_x_at) / RFU ORM1 (11744905_x_at) / Fold change /veh ORM1 (11744905_x_at) / RFU CCDC152 (11743942_at) / Fold change /veh CCDC152 (11743942_at) / RFU ECM1 (11717891_a_at) / Fold change /veh ECM1 (11717891_a_at) / RFU IL23R (11748794_a_at) / Fold change /veh IL23R (11748794_a_at) / RFU TNFAIP8L3 (11732012_x_at) / Fold change /veh TNFAIP8L3 (11732012_x_at) / RFU MBOAT4 (11741988_at) / Fold change /veh MBOAT4 (11741988_at) / RFU 11764193_at / Fold change /veh 11764193_at / RFU TMEM53 (11763286_at) / Fold change /veh TMEM53 (11763286_at) / RFU MAGEB2 (11727129_at) / Fold change /veh MAGEB2 (11727129_at) / RFU TMEM200A (11744735_a_at) / Fold change /veh TMEM200A (11744735_a_at) / RFU CCDC152 (11751479_a_at) / Fold change /veh CCDC152 (11751479_a_at) / RFU FAM211A (11726209_a_at) / Fold change /veh FAM211A (11726209_a_at) / RFU RGS16 (11746705_a_at) / Fold change /veh RGS16 (11746705_a_at) / RFU VCAN (11755009_s_at) / Fold change /veh VCAN (11755009_s_at) / RFU RHOB (11743442_s_at) / Fold change /veh RHOB (11743442_s_at) / RFU RGS16 (11720943_a_at) / Fold change /veh RGS16 (11720943_a_at) / RFU RGS16 (11720944_at) / Fold change /veh RGS16 (11720944_at) / RFU, VPS4B / Fold change vs veh, VPS4B / RFU, CREB1 / Fold change vs veh, CREB1 / RFU, DNAJC13 / Fold change vs veh, DNAJC13 / RFU, GNAQ / Fold change vs veh, GNAQ / RFU, CDK5R1 / Fold change vs veh, CDK5R1 / RFU, ZRANB3 / Fold change vs veh, ZRANB3 / RFU, CUL4A / Fold change vs veh, CUL4A / RFU, CCNY / Fold change vs veh, CCNY / RFU, UFL1 / Fold change vs veh, UFL1 / RFU, COG3 / Fold change vs veh, COG3 / RFU, DIAPH2 / Fold change vs veh, DIAPH2 / RFU, SKA2 / Fold change vs veh, SKA2 / RFU, AFF3 / Fold change vs veh, AFF3 / RFU, LMF1 / Fold change vs veh, LMF1 / RFU, IPO11 / Fold change vs veh, IPO11 / RFU, DFFB / Fold change vs veh, DFFB / RFU, FOXP1 / Fold change vs veh, FOXP1 / RFU, CARD8 / Fold change vs veh, CARD8 / RFU, STRN3 / Fold change vs veh, STRN3 / RFU, ADK / Fold change vs veh, ADK / RFU, RASSF2 / Fold change vs veh, RASSF2 / RFU, WIPF1 / Fold change vs veh, WIPF1 / RFU, LARP1B / Fold change vs veh, LARP1B / RFU, RASA1 / Fold change vs veh, RASA1 / RFU, RB1 / Fold change vs veh, RB1 / RFU, PPFIA1 / Fold change vs veh, PPFIA1 / RFU, MAT2A / Fold change vs veh, MAT2A / RFU, CCT5 / Fold change vs veh, CCT5 / RFU, WDR92 / Fold change vs veh, WDR92 / RFU, CUX1 / Fold change vs veh, CUX1 / RFU, TTC7A / Fold change vs veh, TTC7A / RFU, TMEM135 / Fold change vs veh, TMEM135 / RFU, DEPTOR / Fold change vs veh, DEPTOR / RFU, CPM / Fold change vs veh, CPM / RFU, DNAJB6 / Fold change vs veh, DNAJB6 / RFU, CACNA2D3 / Fold change vs veh, CACNA2D3 / RFU, DTX4 / Fold change vs veh, DTX4 / RFU, TFCP2 / Fold change vs veh, TFCP2 / RFU, GMCL1 /// GMCL1P1 / Fold change vs veh, GMCL1 /// GMCL1P1 / RFU, AEBP2 / Fold change vs veh, AEBP2 / RFU, SNHG1 /// SNORD22 /// SNORD25 /// SNORD26 /// SNORD27 /// SNORD28 /// SNORD29 /// SNORD31 / Fold change vs veh, SNHG1 /// SNORD22 /// SNORD25 /// SNORD26 /// SNORD27 /// SNORD28 /// SNORD29 /// SNORD31 / Fold change (Aza/veh), C12orf56 (ProbeSet 11735607_a_at) / Fold change (ACY-1035/veh), C12orf56 (ProbeSet 11735607_a_at) / Fold change (Aza/veh), FGFR1OP (ProbeSet 11751329_s_at) / Fold change (ACY-1035/veh), FGFR1OP (ProbeSet 11751329_s_at) / Fold change (Aza/veh), VPS36 (ProbeSet 11739960_a_at) / Fold change (ACY-1035/veh), VPS36 (ProbeSet 11739960_a_at) / RFU SYPL1 (11715823_x_at) / Fold change /veh SYPL1 (11715823_x_at) / RFU IGFBP7 (11715501_s_at) / Fold change /veh IGFBP7 (11715501_s_at) / RFU REEP3 (11722064_at) / Fold change /veh REEP3 (11722064_at) / RFU IGLL1 (11728026_x_at) / Fold change /veh IGLL1 (11728026_x_at): dose or concentration left out as unconfirmed
Conditions: ProbeSet 11732165_x_at; LIST D

Nc1ncn([C@@H]2O[C@H](CO)[C@@H](O)[C@H]2O)c(=O)n1 [azacitidine]
Fold change vs veh, LMF1: 0.71
